Measured values as given in PMC4358773, “Highly specific ubiquitin-competing molecules effectively promote frataxin accumulation and partially rescue the aconitase defect in Friedreich ataxia cells” (Neurobiology of Disease, 2015).

Target: T1, frataxin precursor (aa 1-210) (Homo sapiens, UniProt Q16595)
T1 construct: gene FXN; full-length precursor, aa 1-210, recombinant, expressed and purified by GenScript
T1 sequence (Q16595 1-210): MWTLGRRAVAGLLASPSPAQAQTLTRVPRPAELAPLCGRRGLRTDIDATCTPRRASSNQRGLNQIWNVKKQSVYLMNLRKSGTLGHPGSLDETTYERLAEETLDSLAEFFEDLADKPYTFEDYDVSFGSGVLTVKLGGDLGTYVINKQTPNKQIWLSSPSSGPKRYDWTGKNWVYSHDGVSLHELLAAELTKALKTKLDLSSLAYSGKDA
Assay: intrinsic Trp fluorescence quenching, hyperbolic isotherm
Details: 20 °C; 2 μM protein; ligand 0.5-25 μM; half-saturation binding constant; read-out: L1/2

## C/C(=N\NC(=O)c1ccc(C)cc1C)c1ccc2c(c1)Nc1ccccc1S2 [UCM53]
  Kd: 2900 ± 300 nM

## C/C(=N\NC(=O)c1ccccc1)c1ccc2c(c1)Nc1ccccc1S2 [UCM108]
  Kd: 2300 ± 300 nM
